Patent US6627211B1, “Transnasal anticonvulsive compositions and modulated process” (SK Corporation, priority 1999, dated 2003)

Assays:
[1] = In vitro nasal membrane permeation (glass diffusion cell); conditions: for Mean Transnasal Flux: diazepam, 37° C., n = 2
Description: The nasal mucous membrane used in these in vitro experiments was obtained from New Zealand White rabbits (2.5-3.0 kg). Rabbits were sacrificed by IV injection of phenobarbital. The nasal septum was carefully removed from a bone block using surgical scissors and a bone-cutting saw. Two pieces of nasal mucous membranes were then carefully stripped from the nasal septum without touching the center of the membrane surface and rinsed with normal saline solution. The mucosal membrane was mounted between two half-cells of a glass diffusion cell apparatus. The exposed area of the nasal membrane was approximately 0.64 cm^2. A test solution or suspension (3.5 ml) was introduced into the mucosal side of the membrane in the donor compartment while 3.5 ml of 10% ethanol, 40% propylene glycol, and 50% pH 7.4 isotonic phosphate buffer solution was added to the receptor compartment. The entire diffusion system was maintained at 37° C. throughout the experiment. At predetermined time intervals, 100 μl of the receptor solution was withdrawn for the assay and refilled with the same volume of fresh receptor medium to keep the volume constant. The steady-state flux value was determined from the slope of the straight line attained from the plot of the cumulative amount of drug permeated as a function of time. Each experiment was carried out in at least duplicate.
A high pressure liquid chromatographic system equipped with a multi-solvent delivery system (Model 600E, Waters Associates, Milford, Mass.), an auto-injector (Model 717 Plus, Waters Ass.), a photodiode array detector (Model 996, Waters Ass.), a reverse phase Symmetric C18 column (150 mm ×3.9 mm ID, 5 μm), and a Millenium 2010 software computer system was used in this study.
In these studies, a series of bile salts such as sodium cholate, sodium deoxycholate, sodium taurocholate, and sodium glycocholate, and a lecithin such as lysophosphatidylcholine were examined. The permeation rates were measured using the method described under the in vitro membrane permeation test method.
The permeation rates were determined utilizing the method described in Example 1.
The in vitro membrane permeation rates were measured using the test method described in Example 1.
Sample drug solutions (10 mg/ml) were prepared with the vehicle with and without the bile salt. The membrane permeation rates were measured in the use of the test method described in Example 1.
The in vitro permeation experiments were performed using the test method described in Example 1.

[2] = dogs, after the nasal administration; cited from earlier work
[3] = Bioavailability and pharmacokinetics of (S)-2-carbamoyloxyl-1-o-chlorophenylethanol preparations after IV and IN administration; assay type: in vivo; conditions: rabbits
Description: A formulation for IV injection was prepared by dissolving 15 mg (S)-2-carbamoyloxyl-1-o-chlorophenylethanol in 1 mL of 40% PEG 400 and 60% water and filtering through a sterile membrane filter under aseptic conditions. The formulations were administered to rabbits (n=2-4) at the two dosing levels of 2.5 mg/kg and 5 mg/kg in a manner analogous to that described in Example 7. A repeated dosing regimen at 5 minute intervals was also studied in the nasal application of the preparation of the invention. […] To the plasma sample, 50 μl of an internal standard solution (2-(2,6-dichlorophenyl)-2-carbamoyloxyethyl)oxocarboxamide-10 μg/ml) and 5 ml of methyl-butyl ether were added. The mixture was vortexed for 60 seconds and centrifuged at 3500 rpm for 10 minutes. […] The residue was reconstituted with 200 μl of deionized water. The (S)-2-carbamoyloxyl-1-o-chlorophenylethanol concentration in the plasma was determined by HPLC in the use of a mobile phase consisting of 20% acetonitrile and 80% water with a flow rate of 1 ml/minute and UV detection at 210 nm. The detection limit for (S)-2-carbamoyloxyl-1-o-chlorophenylethanol was 23 nmol/l. The pharmacokinetic parameters determined after IV and IN administration of (S)-2-carbamoyloxyl-1-o-chlorophenylethanol at two dose strengths are presented in Table VIII. […]

[4] = Bioavailability and pharmacokinetics of clonazepam preparations after IV and IN administration; conditions: rabbits
Description: The formulations were administered to rabbits (n=3) at a dose of 0.2 mg/kg in a manner analogous to those described in Example 7. A repeated dosing regimen (double and triple applications) at 5 minutes time intervals was also tested. Blood samples were obtained from the ear vein at the following time intervals: 0, 2, 5, 10, 20, 30, 45, 60, and 120 minutes. From the blood samples, plasma was separated by centrifugation and stored at −20° C. until analysis. For analysis, plasma samples (0.5 ml) were accurately transferred into a 15-ml test tube. […] To the above mixture, 5 ml of diethyl ether was added and this mixture was vortexed for 60 seconds and centrifuged at 4000 rpm for 10 minutes. The upper ethereal solution was transferred to a 5 ml test tube and evaporated in a vacuum evaporator at 40° C. for 30 minutes. The residue was reconstituted with 100 μl of the mobile phase for HPLC analysis consisting of 20% methanol, 30% acetonitrile, and a 50% pH 3.5 KH2PO4/H3PO4 buffer/solution. The clonazepam concentration in the plasma was determined by HPLC using a flow rate of 1 ml/minute and the UV detection at 254 nm. The detection limit for clonazepam was 16 nmol/l.

[5] = vehicle 30% ethanol, 60% propylene glycol, 10% water, initial drug concentration 5mg/ml

CN1C(=O)CN=C(c2ccccc2)c2cc(Cl)ccc21 [Diazepam, diazepam]
increase in the steady-state flux when 1% sodium glycocholate is incorporated into the vehicle ([1]; 10 mg/ml diazepam in 30% ethanol, 60% propylene glycol, 10% water with vs without 1% SGC (FIG. 3)): approximately 50% | Mean Transnasal Flux ([1]; vehicle 1% Lysophosphotidylcholine/H2O): 125.5 μg/cm^2/hr | Mean Transnasal Flux ([1]; vehicle 1% Sodium Cholate/H2O): 66.3 μg/cm^2/hr | Mean Transnasal Flux ([1]; vehicle 1% Sodium Deoxycholate/H2O): 74.9 μg/cm^2/hr | Mean Transnasal Flux ([1]; vehicle 1% Sodium Glycocholate/H2O): 96.4 μg/cm^2/hr | Mean Transnasal Flux ([1]; vehicle 1% Sodium Taurocholate/H2O): 87.0 μg/cm^2/hr | Mean Transnasal Flux ([1]; vehicle Water): 79.5 μg/cm^2/hr | Transnasal Flux [1, 5]: 246.0 μg/cm^2/hr

Cc1nnc2n1-c1ccc(Cl)cc1C(c1ccccc1Cl)=NC2 [triazolam]
time to maximum plasma concentration [2]: 18 min

NC(=O)OC[C@@H](O)c1ccccc1Cl [(S)-2-carbamoyloxyl-1-o-chlorophenylethanol]
Papp at 5 mg/ml ([1]; New Zealand White, rabbit): 27.1 ×10⁻⁶ cm/s | Transnasal Flux ([1]; New Zealand White, rabbit, 5 mg/ml): 487.6 μg/cm^2/hr | time at which plasma concentration after the second dosing exceeded the plasma level of a single IV injection ([3]; IN 5 mg/kg × 2 vs IV 5 mg/kg): 30 min | Cmax and AUC0-240 minutes after the second intranasal application ([3]; second IN application 5 minutes after the first dosing, 5 mg/kg × 2): doubled

O=C1CN=C(c2ccccc2Cl)c2cc([N+](=O)[O-])ccc2N1 [Clonazepam, clonazepam]
Papp at 5 mg/ml ([1]; New Zealand White, rabbit): 19.3 ×10⁻⁶ cm/s | Transnasal Flux [1, 5]: 347.7 μg/cm^2/hr | time to initial peak plasma concentration ([4]; after the first intranasal application): ≤ 2 min | peak plasma level relative to the IV injection ([4]; first intranasal application 0.2 mg/kg): about 32% | peak plasma concentration after the third application compared with the single IV injection ([4]; third IN application at 5 minutes intervals, peak observed at 15 minutes): nearly identical
